Read-outs that look alike come from different tables or passages of the source.
Experiments:
[1] = tested on: mono-methyl arginine in RKO cells; experiment: RKO Methylation Assay, In Cell Western (ICW) for mono-methyl arginine and DNA content; assay type: cell-based; details: Homo sapiens, RKO, 72 h
Summary of the method: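 RKO cells treated with compound for 72 hours at 37 °C, then methanol-fixed and stained overnight at 4 °C with anti-mono-methyl arginine antibody, plus DRAQ5 for DNA. Signal ratio from 700 and 800 nm infrared scans normalized to DMSO (minimum) and 20 μM reference compound (maximum); EC30 from triplicate curves.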

human PRMT6 = molecular target: T1, human PRMT6 (Homo sapiens, UniProt Q96LA8); experiment: PRMT6 Biochemical Assay (3H-SAM Flashplate, peptide substrate); details: Biochemical IC50 PRMT6, single experiment or average of multiple experiments
T1 construct: Flag-PRMT6-His; made in house; host or cells: HEK 293F cells (BacMam baculovirus)
T1 sequence (Q96LA8 with tags, fused parts or gaps): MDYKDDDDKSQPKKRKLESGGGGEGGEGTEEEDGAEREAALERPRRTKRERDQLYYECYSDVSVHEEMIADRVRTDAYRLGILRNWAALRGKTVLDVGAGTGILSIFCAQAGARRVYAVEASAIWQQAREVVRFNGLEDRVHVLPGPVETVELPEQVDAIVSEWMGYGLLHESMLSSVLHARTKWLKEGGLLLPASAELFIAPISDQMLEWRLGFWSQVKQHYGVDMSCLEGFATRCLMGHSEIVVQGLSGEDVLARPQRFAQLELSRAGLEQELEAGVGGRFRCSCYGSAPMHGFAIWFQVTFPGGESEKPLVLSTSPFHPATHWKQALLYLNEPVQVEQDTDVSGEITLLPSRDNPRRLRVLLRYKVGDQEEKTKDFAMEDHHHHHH
Summary of the method: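 Flag-PRMT6-His, expressed in mammalian cells from a BacMam vector, was preincubated with compound for 30 min at room temperature in Bicine pH 7.6 buffer with TCEP, BSG and Tween 20. Reactions were started with ³H-SAM and a biotinylated histone H4 36-50 peptide, then stopped with cold SAM (400 uM final). Labeled peptide was captured on streptavidin Flashplates, counted, and fitted to a 3- or 4-parameter curve.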

[2] = RKO cells, 72 hours, mono-methyl arginine, percent activation, single experiment or average of multiple experiments, read-out: EC30 (In Cell Western data, Numerical)
[3] = read-out: EC30 (In Cell Western data, Numerical, μM)

Row | IC50 (human PRMT6) [nM] | Compound | EC30 [1, 2] [µM] | EC30 [1, 3] [µM]
1 | 271 | CNCCN(C)Cc1cn(C2CC2)nc1-c1ccc(F)cc1 [Compound 13] | > 20 | –
2 | 27.7 | CNCCN(C)Cc1cnn(C2CC2)c1-c1ccc(F)cc1 [Compound 14] | 3.35 | –
3 | 526 | CNCCN(C)Cc1cn(C(C)C)nc1-c1ccc(F)cc1 [Compound 15] | > 20 | –
4 | 13.6 | CNCCN(C)Cc1cn[nH]c1-c1cc(F)cc(F)c1 [Compound 18] | – | –
5 | 60 | CN(CCN)Cc1n[nH]cc1-c1ccc(C2CCOCC2)cc1 [Compound 145] | 1.95 | –
6 | 12.5 | COc1ccc(-c2n[nH]cc2CN(C)CCN)c(Cl)c1 [Compound 146] | 7.16 | –
7 | 53.6 | CN(CCN)Cc1c[nH]nc1-c1cc(C#N)ccc1Cl [Compound 147] | > 20 | –
8 | 68.2 | CN(CCN)Cc1c[nH]nc1-c1ccc(C(F)(F)F)cc1F [Compound 148] | 7.3 | –
9 | 62.5 | CN(CCN)Cc1c[nH]nc1-c1cccc(N(C)C)c1 [Compound 149] | 4.32 | –
10 | 29 | CCOC(=O)c1cccc(-c2n[nH]cc2CN(C)CCN)c1 [Compound 150] | 6.66 | –
11 | 112 | COc1cc(F)ccc1-c1n[nH]cc1CN(C)CCN [Compound 151] | 9.73 | –
12 | 22.7 | Cc1cc(F)ccc1-c1n[nH]cc1CN(C)CCN [Compound 152] | 5.78 | –
13 | 11.6 | COc1ccc(-c2n[nH]cc2CN(C)CCN)cc1 [Compound 153] | 1.39 | –
14 | 375 | COc1ccc(-c2n[nH]cc2CN(C)CCN)c(C(F)(F)F)c1 [Compound 154] | > 20 | –
15 | 22.3 | COc1ccc(-c2n[nH]cc2CN(C)CCN)c(C)c1 [Compound 155] | 10.6 | –
16 | 43.1 | CN(CCN)Cc1c[nH]nc1-c1cc(Cl)ccc1F [Compound 156] | 9.56 | –
17 | 504 | COc1ccc(Cl)cc1-c1n[nH]cc1CN(C)CCN [Compound 157] | > 20 | –
18 | 115 | Cc1ccc(C#N)cc1-c1n[nH]cc1CN(C)CCN [Compound 158] | > 20 | –
19 | 27.3 | Cc1ccc(F)cc1-c1n[nH]cc1CN(C)CCN [Compound 159] | 8.56 | –
20 | 191 | COc1ccc(F)cc1-c1n[nH]cc1CN(C)CCN [Compound 160] | 17.7 | –
21 | 96.5 | Cc1ccccc1-c1n[nH]cc1CN(C)CCN [Compound 161] | 14.9 | –
22 | 7.71 | Cc1ccc(-c2n[nH]cc2CN(C)CCN)cc1 [Compound 162] | 1.34 | –
23 | 62.6 | CCN(C)C(=O)c1ccc(-c2n[nH]cc2CN(C)CCN)cc1 [Compound 163] | > 20 | –
24 | 41.8 | CC(C)CN(C)C(=O)c1ccc(-c2n[nH]cc2CN(C)CCN)cc1 [Compound 164] | 18.5 | –
25 | 15.6 | CCOc1ccc(-c2n[nH]cc2CN(C)CCN)cc1 [Compound 166] | 0.434 | –
26 | 17.4 | COCCOc1ccc(-c2n[nH]cc2CN(C)CCN)cc1 [Compound 167] | 0.845 | –
27 | 85 | Cc1[nH]nc(-c2ccc(F)cc2)c1CN(C)CCN [Compound 169] | > 20 | –
28 | 59.3 | CC(C)Cc1ccc(-c2c[nH]nc2CN(C)CCN)cc1 [Compound 170] | 1.39 | –

Row | IC50 (human PRMT6) [nM] | Compound | EC30 [1, 2] [µM] | EC30 [1, 3] [µM]
29 | 2420 | NCCN(CCO)Cc1c[nH]nc1-c1ccc(F)cc1 [Compound 171] | > 20 | –
30 | 26.4 | CN(CCN)Cc1c[nH]nc1-c1ccc(OCCN2CCOCC2)cc1 [Compound 172] | > 20 | –
31 | 14.9 | CN(CCN)Cc1c[nH]nc1-c1ccc2c(c1)NC(=O)CO2 [Compound 173] | > 20 | –
32 | 15 | CNCCN(C)Cc1c[nH]nc1-c1ccc(C(F)(F)F)cc1 [Compound 174] | 0.26 | –
33 | 12.5 | CNCCN(C)Cc1c[nH]nc1-c1ccc(OC2CCOCC2)cc1 [Compound 175] | 0.174 | –
34 | 67.3 | CC(C)Oc1ccc(-c2nn(C)cc2CN(C)CCN)cc1 [Compound 176] | 0.882 | –
35 | 34.2 | CC(C)Oc1ccc(-c2c(CN(C)CCN)cnn2C)cc1 [Compound 177] | 0.295 | –
36 | 7.22 | CN(CCN)Cc1c[nH]nc1-c1ccc(OC2CCOCC2)cc1 [Compound 178] | 0.954 | –
37 | 13.4 | COCCCOc1ccc(-c2n[nH]cc2CN(C)CCN)cc1 [Compound 179] | 0.03 | –
38 | 17.3 | CNCCN(C)Cc1c[nH]nc1-c1ccc(OC(C)C)c(F)c1 [Compound 181] | 0.046 | –
39 | 5.48 | CNCCN(C)Cc1c[nH]nc1-c1ccc(Cl)c(F)c1 [Compound 182] | 0.179 | –
40 | 2380 | CN(CCN(C)C1CC1)Cc1c[nH]nc1-c1ccc(C#N)cc1 [Compound 184] | 2.41 | –
41 | 407 | CN(CCN1CCC1)Cc1c[nH]nc1-c1ccc(C#N)cc1 [Compound 185] | > 20 | –
42 | 77.6 | CC(C)Oc1cccc(-c2n[nH]cc2CN(C)CCN)c1 [Compound 187] | 7.07 | –
43 | 37.4 | CC(C)Oc1cc(-c2n[nH]cc2CN(C)CCN)ccc1F [Compound 188] | 12.3 | –
44 | 29.5 | CCC(=O)N1CCN(c2ccc(-c3n[nH]cc3CN(C)CCN)cc2)CC1 [Compound 189] | > 20 | –
45 | 435 | CC(C)CN1C(=O)COc2ccc(-c3n[nH]cc3CN(C)CCN)cc21 [Compound 191] | > 20 | –
46 | 34.6 | CN(CCN)Cc1c[nH]nc1-c1ccc2c(c1)OCC(=O)N2C [Compound 192] | > 20 | –
47 | 247 | CC(C)CN1C(=O)COc2cc(-c3n[nH]cc3CN(C)CCN)ccc21 [Compound 193] | 9.72 | –
48 | 15.3 | CN(CCN)Cc1c[nH]nc1-c1ccc(OCCO)cc1 [Compound 194] | 17 | –
49 | 9.24 | CN(CCN)Cc1c[nH]nc1-c1ccc(OCCCO)cc1 [Compound 195] | 7.18 | –
50 | 28.7 | CN(CCN)Cc1c[nH]nc1-c1ccc2c(c1)N(C)C(=O)CO2 [Compound 196] | > 20 | –
51 | 67.2 | CCNC(=O)c1cccc(-c2n[nH]cc2CN(C)CCN)c1 [Compound 197] | > 20 | –
52 | 322 | CCN(C)C(=O)c1cccc(-c2n[nH]cc2CN(C)CCN)c1 [Compound 198] | > 20 | –
53 | 103 | Cc1cc(-c2n[nH]cc2CN(C)CCN)cc(C)c1OC(C)C [Compound 199, N^1-((3-(4-isopropoxy-3,5-dimethylphenyl)-1H-pyrazol-4-yl)methyl)-N^1-methylethane-1,2-diamine] | 2.82 | –
54 | 2.9 | CN(CCN)Cc1c[nH]nc1-c1ccc(Oc2ccccc2)c(C#N)c1 [Compound 202] | 0.941 | –
55 | 2.42 | CN(CCN)Cc1n[nH]cc1-c1ccc(Oc2ccccc2)cc1 [Compound 203] | 1.72 | –

Row | Compound | IC50 (human PRMT6) [nM] | EC30 [1, 2] [µM] | EC30 [1, 3] [µM]
56 | CNCCN(C)Cc1cnn(C(C)C)c1-c1ccc(F)cc1 [Compound 16] | 57.9 | – | > 20
57 | CNCCN(C)Cc1cn[nH]c1-c1ccc(C#N)cc1 [Compound 17] | 12.8 | – | > 20

Reference: US9776972B2, “Pyrazole derivatives as arginine methyltransferase inhibitors and uses thereof” (priority 2013, dated 2017)
